We go through one molecule from patent US20130018094A1, “Prophylactic or Therapeutic Agent For Gum Disease or Apical Periodontitis” (priority 2009, published 2013).

“Also recorded” adds a separate entry of the source.

For test [1], the system named is IL-6. Kind of test: Rat apical periodontitis model: level of expression of IL-6 in the lesions by real-time PCR. The test is classed as in vivo. Particulars: male Wistar rats, 150 mg/kg orally twice per day, after 21 days, vs control group. Here is the method:
(§1) An experiment was conducted using six-week-old male Wistar rats. After the pulp of the mandibular first molar was exposed using a round bar, apical periodontitis was induced by extracting the pulp and opening it inside the oral cavity. In the experimental groups, monosodium (2S,3S)-3-[[(1S)-1-isobutozymethyl-3-methylbutyl]-carbamoyl]oxirane-2-carboxylate (compound A: 150 mg/kg) was orally administered twice per day. A non-administration group was used as a control. After 21 days, the rats were euthanized and the jawbone surrounding each mandibular molar was extracted. The left side was fixed in 4% paraformaldehyde/phosphate buffer solution (PBS) (4° C., 12 hours), and then the size of the apical lesion was measured by micro-CT imaging (Shimadzu SMX-90CT). After that, it was decalcified with 15% EDTA solution and embedded in OCT compound, and frozen slices 7 μm thick were made. […] On the right side, the lesion portion surrounding the apex was extracted as a lump together with the apex, and after RNA extraction (Qiagen: RNeasy Lipid Tissue Mini Kit), cDNA was created by ordinary methods (Invitrogen: Superscript III), and the levels of expression of inflammatory cytokines (IL-1α and IL-6) were measured by real-time PCR (BioRad: DNA Engine Opticon 2; Invitrogen: Platinum SYBR Green qPCR SuperMix).

Test [2] deals with T1, cathepsin K (Homo sapiens, UniProt P43235).
T1 sequence (P43235 115-329): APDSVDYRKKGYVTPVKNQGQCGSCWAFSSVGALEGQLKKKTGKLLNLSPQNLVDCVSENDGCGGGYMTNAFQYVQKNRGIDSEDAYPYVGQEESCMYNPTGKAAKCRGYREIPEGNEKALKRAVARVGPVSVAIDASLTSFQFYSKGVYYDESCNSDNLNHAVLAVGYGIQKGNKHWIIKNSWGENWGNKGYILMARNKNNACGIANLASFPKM
Particulars: known from Patent Reference 4 (WO 99/11640); cited from earlier work.

Test [3] deals with osteoclasts on the alveolar bone surrounding the apex. Kind of test: Rat apical periodontitis model: histological examination (HE and TRAP staining) of osteoclasts. The test is classed as in vivo. The conditions noted are these: male Wistar rats, 150 mg/kg orally twice per day, after 21 days, vs control group. Here is the method: as §1
Test [4] concerns rat experimental apical periodontitis. Briefly: Rat apical periodontitis model: size of apical lesions by micro-CT. The format is in vivo. Particulars: male Wistar rats, 150 mg/kg orally twice per day. As to the method: Using a rat apical periodontitis model, pharmacological tests were conducted for monosodium (2S,3S)-3-[[(1S)-1-isobutozymethyl-3-methylbutyl]-carbamoyl]oxirane-2-carboxylate.
as §1, with “SMX-90CT).” for “SMX-90CT). After that, it was decalcified with 15% EDTA solution and embedded in OCT compound, and frozen slices 7 μm thick were made.”

Test [5] has as its system IL-1α. Briefly: Rat apical periodontitis model: level of expression of IL-1α in the lesions by real-time PCR. The format is in vivo. The conditions noted are these: male Wistar rats, 150 mg/kg orally twice per day, after 21 days, vs control group. As to the method: as §1
In general terms: Quantitative PCR measures a nucleic acid by following its amplification.

As to `CC(C)COC[C@H](CC(C)C)NC(=O)[C@H]1O[C@@H]1C(=O)[O-].[Na+]` [compound A, monosodium (2S,3S)-3-[[(1S)-1-isobutozymethyl-3-methylbutyl]-carbamoyl]oxirane-2-carboxylate], the “level of expression of IL-6 in the lesions” value in test [1] is recorded as “significantly suppressed”. In addition, the “cathepsin K inhibiting action” value in test [2] is “has a cathepsin K inhibiting action”. Moreover, the “number of osteoclasts on the alveolar bone surrounding the apex (histological examination)” value in test [3] was “their number tended to be small”. In test [4] (21 days), the “suppressive effect against progression of rat experimental apical periodontitis” value was “excellent suppressive effect”. Besides, the “size of apical lesions by micro-CT” value in test [4] (after 21 days, vs control group, 150 mg/kg) is on record as “smaller apical lesions were formed; also recorded: their size was smaller than in the control group”. Also, in test [5], the “level of expression of IL-1α in the lesions” value is given as “significantly suppressed”.
